Results on 3 molecules are retold here after patent US5284872A, “Nitrato alkanoic acid derivatives, methods for their production, pharmaceutical compositions containing the derivatives and medicinal uses thereof” (Schwarz Pharma AG, priority 1990, dated 1994).

Test [1] is described as follows: NO release / rate of NO formation from organic nitrates. Conditions: pH 7.4; for rate of NO formation: 1 mM compound, same conditions as ISDN.
Test [2] relates to normotonous conscious rats and spontaneous hypertensive rats. The test can be described thus: Peroral application to conscious rats: arterial pressure and heart rate. Type of test: in vivo, rat.
The subject of test [3] is normotonous (WKY) and spontaneously hypertensive rats (SHR). Kind of test: Endothelium dependent and independent blood pressure regulation in chronically instrumented conscious rats (acetylcholine and adenosine as test stimuli). In kind it is in vivo, rat. Conditions: single oral application. From the text: The effect of a single peroral application of SPM 5186 on endothelium dependent and independent blood pressure regulation was investigated in chronically instrumented conscious rats with acetylcholine and adenosine serving as test stimuli.

The subject of another test is conscious beagle dogs. The test can be described thus: Hemodynamic profile in conscious beagle dogs. Type of test: in vivo, beagle dog. Conditions: for mean arterial and venous pressure: 0.01-1 μmol/kg i.v. and 1-10 μmol/kg p.o.; for arterial vessel compliance / cardiac output: i.v. and p.o.; for effectiveness in reducing arterial and central venous pressure compared with GTN (dose-response curves): versus GTN and IS-5-N. From the text: The hemodynamic profile of SPM 5185 and SPM 5186 in direct comparison to classical nitrates was investigated in conscious beagle dogs.

The test system of test [4] is soluble guanylate cyclase. Kind of test: Stimulation of soluble guanylate cyclase. Conditions: for stimulation of guanylate cyclase, dependence on cysteine: with or without cysteine. Type of test: biochemical.
In test [5] the test system is precontracted rat aortic rings. The test can be described thus: Relaxation of precontracted rat aortic rings. Conditions: for EC50: read-out: EC50 of concentration-dependent relaxation; for potency relative to ISDN (factor): versus isosorbid dinitrate. From the text:
Compounds SPM 5185 and SPM 5186 caused a similar concentration-dependent relaxation of precontracted rat aortic rings with a potency exceeding that of ISDN (isosorbid dinitrate) by a factor of 5 (EC50 approx. 10^-6 M).

Take `CCOC(=O)[C@H](CSC(=O)CNC(C)=O)NC(=O)C(C)(C)CO[N+](=O)[O-]` [SPM 5186, N-nitrato-pivaloyl-S-(N-acetyl-glycyl)-L-cysteine ethyl ester]: in test [1], the “rate of NO formation” value is given as 24.8±5.4 nM NO/min. The “systolic and diastolic arterial blood pressure” value in test [2] (same dose, spontaneous hypertensive rats) was “marked decrease”. Moreover, the “alteration of endogenous dilator mechanisms” value in test [3] is “Neither in normotonous (WKY) nor in spontaneously hypertensive rats (SHR) could any significant alteration of endogenous dilator mechanisms be observed”. For the same molecule, in the test with conscious beagle dogs, the “estimated duration of action” value is “long-acting nitrates”; the “mean arterial and venous pressure” value is “dose-dependent decrease”; the arterial vessel compliance result is given as “enhanced”; the cardiac output entry is “remained unaffected”. Also, in the test on conscious beagle dogs, the “effectiveness in reducing arterial and central venous pressure compared with GTN (dose-response curves)” value was “even more effective than the most potent classical nitrate GTN”. For the same molecule, the “stimulation of guanylate cyclase, dependence on cysteine” value in test [4] was “stimulated guanylate cyclase only in the presence of cysteine”. In test [5], the EC50 is approximately 1000 nM and the “potency relative to ISDN (factor)” value came out at 5.
As to `CCOC(=O)[C@H](CS)NC(=O)C(C)(C)CO[N+](=O)[O-]` [SPM 3672, nitratopivaline carboxylic acid-L-cysteine ethyl ester, reference compound], in test [1] (absence of exogenous cysteine, concentration of 1 mM), the “spontaneous NO release” value is on record as 42.7±9.8 nM NO/min. In addition, in test [4] (absence of exogenous cysteine), the “stimulation of soluble guanylate cyclase” value is “stimulated soluble guanylate cyclase”. Besides, the “effect of addition of cysteine on enzyme stimulation” value in test [4] (addition of cysteine) is given as “did not further enhance enzyme stimulation”.
Consider `CCOC(=O)[C@H](CSC(=O)C(C)NC(C)=O)NC(=O)C(C)(C)CO[N+](=O)[O-]` (stereo partly drawn) [SPM 5185, N-nitrato-pivaloyl-S-(N-acetyl-alanyl)-L-cysteine ethyl ester], for which the “rate of NO formation” value in test [1] is recorded as 35.1±5.1 nM NO/min. Also, in test [2] (normotonous conscious rats), the heart rate entry is reported as “only a slight increase” and the mean arterial pressure result is reported as “nearly no influence”. Besides, in the test on conscious beagle dogs, the “estimated duration of action” value was “long-acting nitrates”; the “mean arterial and venous pressure” value is “dose-dependent decrease”; the arterial vessel compliance entry is recorded as “enhanced”; the cardiac output entry is “remained unaffected”. Also, in the test with conscious beagle dogs, the “effectiveness in reducing arterial and central venous pressure compared with GTN (dose-response curves)” value was “even more effective than the most potent classical nitrate GTN”. For the same molecule, in test [4], the “stimulation of guanylate cyclase, dependence on cysteine” value was “stimulated guanylate cyclase only in the presence of cysteine”. Further, in test [5], the EC50 was approximately 1000 nM and the “potency relative to ISDN (factor)” value amounted to 5.
